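Briefly, cells in 96-well plates were exposed to five compound concentrations for 48 h, and endpoints were estimated by linear interpolation. The concentration for 50% growth inhibition is given as GI50. TGI: total growth inhibition.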
Columns and labels:
Assay in all cases: NCI-60 cell line screen, 48 h
[1] = test system: A549 NSCLC
[2] = test system: NCI/ADR-RES ovarian
[3] = test system: LOX IMVI melanoma
[4] = test system: HT29 colon
[5] = test system: HCT-116 colon
[6] = test system: 786-0 renal
[7] = test system: UACC-62 melanoma
[8] = test system: COLO 205 colon

SMILES	GI50 [1]	TGI [1]	GI50 [2]	TGI [2]	GI50 [3]	TGI [3]	GI50 [4]	TGI [4]	GI50 [5]	TGI [5]	GI50 [6]	TGI [6]	GI50 [7]	TGI [7]	GI50 [8]	TGI [8]
Clc1nc(Cl)c2ncn(C/C=C/Cn3cnc4c(Cl)nc(Cl)nc43)c2n1	13.2 µM	32 µM	20.1 µM	44.6 µM	14.9 µM	28.9 µM	14.7 µM	29.9 µM	10.7 µM	24.4 µM	23.4 µM	48.5 µM	17.5 µM	32.1 µM	15.1 µM	35.5 µM
COc1ccc2nc3ccccc3c(NCCCCCN(CCCl)CCCl)c2c1	–	0.675 µM	–	–	–	0.376 µM	–	2.84 µM	–	–	–	0.137 µM	–	1.8 µM	–	0.429 µM
CCN1CCC2(CC1)NC(=O)c1c(c3ccc(Cl)c(Cl)c3n1C)C2C#N (stereo not given)	3.13 µM	13.5 µM	3.6 µM	13.6 µM	1.65 µM	3.34 µM	1.92 µM	4.11 µM	2.49 µM	4.29 µM	1.7 µM	3.13 µM	1.77 µM	3.32 µM	1.86 µM	4.11 µM
O=[N+]([O-])c1cccc(/C=C/c2ccccn2)c1	27.9 µM	> 100 µM	22.9 µM	> 100 µM	10.6 µM	> 100 µM	–	–	7.02 µM	> 100 µM	36.7 µM	> 100 µM	60 µM	> 100 µM	24.3 µM	95.5 µM
C/C(=C1/N=C(c2ccccc2)OC1=O)c1ccc(C)cc1	–	> 100 µM	–	–	–	> 100 µM	–	> 100 µM	–	> 100 µM	–	> 100 µM	–	> 100 µM	–	> 100 µM
CCOC(=O)/C(=C/c1ccccc1)C(=O)c1ccccc1	4.4 µM	19.9 µM	3.6 µM	70 µM	1.8 µM	3.82 µM	2.78 µM	5.8 µM	2.04 µM	4.39 µM	3.02 µM	8.09 µM	2.73 µM	9.15 µM	2.43 µM	5.04 µM
CN1C(=O)N(C)C2C1NN=c1s/c(=C\c3c[nH]c4ccccc34)c(=O)n12 (stereo not given)	0.109 µM	> 100 µM	0.034 µM	–	0.0518 µM	> 100 µM	0.0377 µM	> 100 µM	0.0371 µM	> 100 µM	0.125 µM	> 100 µM	0.0464 µM	> 100 µM	0.0363 µM	0.564 µM
c1ccc(CCCNc2nnnc3ccccc23)cc1	–	> 100 µM	–	> 100 µM	–	> 100 µM	–	> 100 µM	–	> 100 µM	–	> 100 µM	–	> 100 µM	–	> 100 µM
CCCCCCCCCCCCOC1C(CNCC2OC3OC(C)(C)OC3C2NC(=O)Nc2ccc(C(F)(F)F)cc2)OC2OC(C)(C)OC21 (stereo not given)	8.53 µM	22 µM	8.44 µM	17.1 µM	2.89 µM	5.65 µM	3.14 µM	7.07 µM	2.46 µM	4.7 µM	7.62 µM	14.4 µM	8.63 µM	15.9 µM	3.26 µM	7.32 µM
Cc1coc2c1CC1OC1(C)CCC1OC1(C)C2 (stereo not given)	–	> 100 µM	–	> 100 µM	–	> 100 µM	–	–	–	> 100 µM	–	> 100 µM	–	> 100 µM	–	> 100 µM
Fc1c[c-]c(-c2ccccn2)c(F)c1.[CH3-].[Pt+2].c1ccc([PH+](c2ccccc2)c2ccccn2)cc1	2.66 µM	> 100 µM	1.81 µM	5.35 µM	1.28 µM	2.69 µM	2.44 µM	> 100 µM	1.3 µM	2.8 µM	1.93 µM	4.03 µM	–	–	1.77 µM	5.72 µM
COc1cc([N+](=O)[O-])c(S(=O)(=O)O)cc1N	–	> 100 µM	–	> 100 µM	–	> 100 µM	–	> 100 µM	–	> 100 µM	–	> 100 µM	–	> 100 µM	–	> 100 µM
COc1ccc(N2CCN(CN3CCN(c4ccc(OC)cc4)C3)C2)cc1	> 100 µM	> 100 µM	> 100 µM	> 100 µM	41.3 µM	> 100 µM	> 100 µM	> 100 µM	20.2 µM	50 µM	> 100 µM	> 100 µM	> 100 µM	> 100 µM	> 100 µM	> 100 µM
Cc1c2cnccc2c(C)c2c1c1cc(C(=O)O)ccc1n2C	1.68 µM	6.68 µM	0.764 µM	5.5 µM	0.579 µM	4.18 µM	0.856 µM	6.15 µM	0.373 µM	> 100 µM	1.23 µM	11.8 µM	0.546 µM	2.12 µM	0.594 µM	4.02 µM
COc1ccc2c(c1)CC[C@@H]1[C@@H]2CC[C@]2(C)c3[nH]ncc3C[C@@H]12	15.2 µM	> 50 µM	15.8 µM	> 50 µM	10.8 µM	33.3 µM	15 µM	> 50 µM	12.3 µM	31.9 µM	18.2 µM	> 50 µM	17.2 µM	> 50 µM	14.5 µM	> 50 µM
COc1ccc(S(=O)(=O)NC2=NCCN2C(=S)SN2CCn3c2nsc3=S)cc1OC	27.9 µM	> 100 µM	61.8 µM	> 100 µM	16.8 µM	37.8 µM	25.7 µM	94.4 µM	19.2 µM	40 µM	25.5 µM	63.9 µM	16.3 µM	38 µM	12.5 µM	29 µM
CCN1/C(=C/C=C/C=C/c2sc3ccccc3[n+]2CC)Sc2ccccc21	0.332 µM	2.59 µM	2.99 µM	16.7 µM	0.296 µM	1.6 µM	0.23 µM	1.2 µM	0.181 µM	0.828 µM	0.516 µM	1.71 µM	0.512 µM	1.88 µM	0.191 µM	0.347 µM
Cc1cc(C(=O)N[C@@H](CCC(=O)O)C(=O)O)sc1CC[C@@H]1CNc2nc(N)[nH]c(=O)c2C1	0.0436 µM	> 100 µM	0.0481 µM	> 100 µM	0.0268 µM	> 100 µM	< 0.0178 µM	> 100 µM	< 0.0127 µM	> 100 µM	< 0.01 µM	> 100 µM	0.0378 µM	> 100 µM	0.0309 µM	> 100 µM
FC(F)(F)c1[nH]ncc1-c1nc2c(N3CCCCC3)cc3[nH]ncc3c2c2c1CCCC2	0.816 µM	> 12.5 µM	2.04 µM	> 50 µM	0.656 µM	1.43 µM	1.3 µM	> 50 µM	0.432 µM	3.57 µM	0.905 µM	2.93 µM	0.391 µM	1.41 µM	–	–
COc1cc(-c2nc(-c3nnc(-c4ccc(F)c(Cl)c4)o3)c3ccccn23)cc(OC)c1OC	–	–	1.88 µM	5.24 µM	3.83 µM	> 100 µM	–	–	–	–	2.93 µM	78.8 µM	–	–	4.68 µM	> 100 µM
Cc1cc(O)c(C2=NN(c3ccc(S(N)(=O)=O)cc3)C(c3ccccc3O)C2)cc1Cl (stereo not given)	2.67 µM	7.85 µM	2.82 µM	8.84 µM	1.63 µM	3.03 µM	2.07 µM	4.07 µM	1.57 µM	2.91 µM	2.04 µM	3.88 µM	2.18 µM	6.59 µM	1.86 µM	3.41 µM
COc1cc(-c2cc(-c3nc4cc(Cl)c(Cl)cc4[nH]3)[nH]n2)cc(OC)c1OC	2.87 µM	10.5 µM	3.25 µM	> 100 µM	–	–	3.42 µM	12.5 µM	2.78 µM	10.3 µM	4.09 µM	16.2 µM	1.94 µM	4.31 µM	3.77 µM	12.7 µM
O=C1c2ccccc2C(=O)c2c(NC(=O)C(Cl)CCl)cccc21 (stereo not given)	–	47.6 µM	–	> 77.6 µM	–	–	–	10.5 µM	–	28.4 µM	–	11.9 µM	–	33.9 µM	–	26.9 µM
O=C(Nc1ccc(Cl)cc1F)c1cc(F)ccc1O	2.79 µM	> 45.8 µM	1.63 µM	7.1 µM	0.522 µM	5.31 µM	3.24 µM	> 34 µM	0.702 µM	3.51 µM	2.73 µM	9.73 µM	0.289 µM	1.15 µM	–	–
O=S(=O)(CC#CCCCOCC#Cc1ccccc1C#CCS(=O)(=O)c1ccccc1)c1ccccc1	33.6 µM	> 100 µM	20.6 µM	44.1 µM	8.1 µM	24.8 µM	–	–	16.2 µM	29.7 µM	18.9 µM	35.3 µM	17.7 µM	39.7 µM	72.3 µM	> 100 µM
COc1cc(OC)cc(-c2ccc(-c3ccc(C(=N)N)s3)s2)c1	1.63 µM	3.37 µM	1.75 µM	3.58 µM	0.221 µM	0.495 µM	–	–	0.318 µM	1.22 µM	1.23 µM	3.06 µM	1.75 µM	3.53 µM	0.209 µM	0.407 µM
